Columns and labels:
[1] = test system: IP-Implanted L1210 Leukemia; assay: Dose-response against IP-implanted L1210 leukemia, IP treatment Days 1, 5 and 9, 30-day test (Table 2); assay type: in vivo, CD2Fl male mice
Procedure: (§1) Biological properties of the compounds of the present invention were determined following the protocol described in Cancer Chemotherapy Reports, Vol. 3, No. 3, 1972 which report is incorporated herein by reference.
(§2) This experiment (A8-00005 3LE31) was conducted at the Southern Research Institute, Birmingham, Ala. under the supervision of Dr. Daniel Griswold. The protocols were the same as those published previously (Geran et al., Cancer Chemotherapy Reports 3: No. 2, 1972 [Attachment 11]). 10^5 cells were implanted intraperitoneally in CD2Fl male mice on Day 0. Drug treatments were given intraperitoneally as single injections at the doses indicated on Days 1, 5 and 9 after tumor implantation. The diluent was saline except for NSC-271674 where 5% sodium bicarbonate was used. All drugs were prepared fresh on the day of injection, and all were administered in solution. Median survival times for both control and drug-treated mice were determined and expressed as a percentage (% T/C). Body weights were determined on Day 5 and expressed as a weight difference (body weight of the drug-treated animals minus that of the control animals in grams) (T-C). The diluent control animals lived a median of 8.4 days and gained 1.9 grams by Day 5 in this experiment. All animals, including Day 30 survivors, were used in the calculation of median survival times. The log10 change in tumor burden refers to the net log change in viable tumor cell population at the end of therapy (Rx) as compared to the start of therapy; e.g., a […] means that there was a […] and a 3 log change means there was a 1000-fold increase in tumor burden at the end of therapy. The tumor burden at the start of therapy was about 6.1×10^5 cells in this experiment.

IP L1210/Cisplatin = assay: Activity against IP-implanted L1210/Cisplatin leukemia resistant to cisplatin, 60 day test (Table 4); assay type: in vivo, Female CD2Fl mice
Procedure: as §1
Other known mechanisms of resistance for other classes of agents, such as gene amplification or target enzyme change or amplication, also need to be explored. The experiments summarized in Table 3 were conducted at the same time against both sublines using the same drug preparations. […] These experiments were repeated in a second laboratory as documented in Table 4. However, in these experiments the animals were held for 60 rather than 30 days to evaluate whether or not long-term survivors are produced after drug treatment in a more challenging setting. […]
(§3) These experiments (23-00081 3LE31 and 23-00003 3DP3l) were conducted concurrently at the Mason Research Institute, Worcester, MA under the supervision of Dr. William Cobb. See Table 4 for experimental details. The diluent control animals bearing L1210 leukemia lived a median of 8.3 days and gained 1.6 grams by Day 5. […] Female CD2Fl mice were used for these experiments.

IP L1210 = assay: Activity against IP-implanted L1210 leukemia sensitive to cisplatin, 60 day test (Table 4); assay type: in vivo, Female CD2Fl mice
Procedure: as §1
Other known mechanisms of resistance for other classes of agents, such as gene amplification or target enzyme change or amplication, also need to be explored. The experiments summarized in Table 3 were conducted at the same time against both sublines using the same drug preparations. […] These experiments were repeated in a second laboratory as documented in Table 4. However, in these experiments the animals were held for 60 rather than 30 days to evaluate whether or not long-term survivors are produced after drug treatment in a more challenging setting.
as §2, §3

In the case of `N.N.[Cl][Pt][Cl]` [Cisplatin, cis-diamminedichloroplatinum (II), reference compound], the “30-Day Survivors/Total” value ([1]; 1.25 mg/kg/dose IP) is reported as 0/6, the “Approx. Log10 Change in Tumor Burden at End of Rx” value (from here on “Approx. Log10 Change”) ([1]; 1.25 mg/kg/dose IP) is reported as roughly 2.9 log10 and the “Body Weight Difference” value ([1]; 1.25 mg/kg/dose IP) is reported as -1.0 Grams. The “Median % T/C” value ([1]; 1.25 mg/kg/dose IP) was 123%, the “30-Day Survivors/Total” value ([1]; 5 mg/kg/dose IP) was 0/6 and the “Approx. Log10 Change” value ([1]; 5 mg/kg/dose IP) was roughly 2.4 log10. For the same compound, the “Body Weight Difference” value ([1]; 5 mg/kg/dose IP) was -1.4 Grams, the “Median % T/C” value ([1]; 5 mg/kg/dose IP) was 152% and the “30-Day Survivors/Total” value ([1]; 10 mg/kg/dose IP) was 0/6. For the same compound, the “Approx. Log10 Change” value ([1]; 10 mg/kg/dose IP) was roughly 1.9 log10, the “Body Weight Difference” value ([1]; 10 mg/kg/dose IP) was -1.3 Grams and the “Median % T/C” value ([1]; 10 mg/kg/dose IP) was 166%. The “30-Day Survivors/Total” value ([1]; 20 mg/kg/dose IP) was 3/6, the “Approx. Log10 Change” value ([1]; 20 mg/kg/dose IP) was roughly -5.7 log10 and the “Body Weight Difference” value ([1]; 20 mg/kg/dose IP) was -5.0 Grams. For the same compound, the “Median % T/C” value ([1]; 20 mg/kg/dose IP) was 357%, the “Log reduction in tumor cell burden at the end of therapy” value ([1]; best dose) was -5.7 log10 and the “Optimal dose (dose producing best therapeutic response)” value ([1]; day 1, 5 and 9 schedule) was 20 mg/kg/injection. The “60 Day Survivors/Total” value (IP L1210/Cisplatin; 1.25 mg/kg/dose) was 0/10, the “Body Weight Difference” value (IP L1210/Cisplatin; 1.25 mg/kg/dose) was -0.1 Grams and the “Median % T/C” value (IP L1210/Cisplatin; 1.25 mg/kg/dose) was 103%. For the same compound, the “60 Day Survivors/Total” value (IP L1210/Cisplatin; 5 mg/kg/dose) was 0/10, the “Body Weight Difference” value (IP L1210/Cisplatin; 5 mg/kg/dose) was -2.3 Grams and the “Median % T/C” value (IP L1210/Cisplatin; 5 mg/kg/dose) was 110%. The “60 Day Survivors/Total” value (IP L1210/Cisplatin; 10 mg/kg/dose) was 0/10, the “Body Weight Difference” value (IP L1210/Cisplatin; 10 mg/kg/dose) was -5.1 Grams and the “Median % T/C” value (IP L1210/Cisplatin; 10 mg/kg/dose) was 87%. The “60 Day Survivors/Total” value (IP L1210/Cisplatin; 20 mg/kg/dose) was 0/10, the “Body Weight Difference” value (IP L1210/Cisplatin; 20 mg/kg/dose) was -5.6 Grams and the “Median % T/C” value (IP L1210/Cisplatin; 20 mg/kg/dose) was “Toxic”. The “Activity against L1210/cisplatin” value (IP L1210/Cisplatin; mouse, in vivo) was “lack of activity”, the “60 Day Survivors/Total” value (IP L1210; 1.25 mg/kg/dose) was 0/10 and the “Body Weight Difference” value (IP L1210; 1.25 mg/kg/dose) was -0.6 Grams. For the same compound, the “Median % T/C” value (IP L1210; 1.25 mg/kg/dose) was 127%, the “60 Day Survivors/Total” value (IP L1210; 5 mg/kg/dose) was 0/10 and the “Body Weight Difference” value (IP L1210; 5 mg/kg/dose) was -2.4 Grams. For the same compound, the “Median % T/C” value (IP L1210; 5 mg/kg/dose) was 240%, the “60 Day Survivors/Total” value (IP L1210; 10 mg/kg/dose) was 0/10 and the “Body Weight Difference” value (IP L1210; 10 mg/kg/dose) was -5.1 Grams. For the same compound, the “Median % T/C” value (IP L1210; 10 mg/kg/dose) was 107%, the “60 Day Survivors/Total” value (IP L1210; 20 mg/kg/dose) was 0/10 and the “Body Weight Difference” value (IP L1210; 20 mg/kg/dose) was -5.8 Grams. For the same compound, the “Median % T/C” value (IP L1210; 20 mg/kg/dose) was “Toxic”.

— US4599352A, “Antineoplastic platinum (IV) complexes and compositions” (priority 1984, dated 1986)
